From patent US8029980B2, “Identification and use of agents that modulate oncogenic transcription agent activity” (The Board of Trustees of the University of Illinois, priority 2006, dated 2011) come the findings set out here.

Structures are written as SMILES. “Also recorded” adds a separate entry of the source.

The subject of experiment [1] is NB7 and NB7-casp8 neuroblastoma cells. In words: FoxM1 and cleaved caspase-3 immunoblot in neuroblastoma cells. As to conditions: 24 hrs. In kind it is cell-based. On the procedure: FIG. 11. […] Cells were treated with Siomycin A, thiostrepton or DMSO, harvested 24 hrs later and the lysates were used to determine proteins levels by immunoblotting with antibodies specific for FoxM1, cleaved caspase-3 and β-actin (AS441, Sigma).

For experiment [2], the system named is Leukemia cell lines CEM, HL60 and U937. In words: FoxM1 and cleaved caspase-3 immunoblot in leukemia cell lines. In kind it is cell-based, human. As to conditions: 5 μM, 48 hrs. The protocol:
FIG. 10. […] Leukemia cell lines CEM, HL60 and U937 were treated with 5 μM Siomycin A and thiostrepton, respectively, for 48 hrs and the cell lysates were analyzed for the levels of FoxM1 and cleaved caspase-3 by immunoblotting.
(§1) Immunoblotting was performed as described (18-20) with antibodies specific for p21 (556431; BD Pharmingen), survivin (sc-10811; Santa Cruz), cleaved caspase-3 (9664; Cell Signaling), and β-actin (A5441; Sigma) antibodies. Immunoblot for FoxM1 was done using the previously generated rabbit antisera (2), and phospho-FoxM1 was detected using the MPM2 monoclonal antibody (Upstate Biotechnology) which recognizes the phosphorylated protein sequence phosphoserine/phosphothreonine-proline.
Next we treated leukemia cell lines with mutant p53 CEM, HL60 and U937 with 5 μM of these compounds for 48 hrs and the cell lysates were analyzed for the levels of FoxM1 and cleaved caspase-3 by immunoblotting.
Background: Immunoblotting shows a protein as a band on a membrane.

Experiment [3] deals with Liver cancer cell lines Huh7, Hep-3B and SK-Hep. In words: FoxM1 and cleaved caspase-3 immunoblot in liver cancer cell lines. As to conditions: 10 μM, 48 hrs. In kind it is cell-based, human. On the procedure: FIG. 9. […] Liver cancer cell lines Huh7, Hep-3B and SK-Hep were treated with 10 μM Siomycin A and thiostrepton, respectively, for 48 hrs, and the cell lysates were analyzed for the levels of FoxM1 and cleaved caspase-3 by immunoblotting.
as §1
First, we treated liver cancer cell lines Huh7, Hep-3B and SK-Hep that have deleted or mutant p53 with these compounds for 48 hrs, and the cell lysates were analyzed for the levels of FoxM1 and cleaved caspase-3 by immunoblotting.

Experiment [4] deals with Breast cancer cell lines BT-474, MDA-MB-231, T-47D and ZR-75-1. In words: FoxM1 and cleaved caspase-3 immunoblot in breast cancer cell lines. In kind it is cell-based, human. The conditions noted are these: 5 μM, 48 hrs. The protocol:
FIG. 7. […] Breast cancer cell lines BT-474, MDA-MB-231, T-47D and ZR-75-1 were treated with 5 μM Siomycin and thiostrepton, respectively, for 48 hrs and the cell lysates were analyzed for the levels of FoxM1 and cleaved caspase-3 by immunoblotting.
as §1

Another experiment deals with T1, FoxM1 (Homo sapiens, UniProt Q08050).
T1 construct: expressed in transfected cells; host or cells: U2OS clone C3 / C3-Luc
T1 sequence (Q08050 1-748 isoform Q08050-2): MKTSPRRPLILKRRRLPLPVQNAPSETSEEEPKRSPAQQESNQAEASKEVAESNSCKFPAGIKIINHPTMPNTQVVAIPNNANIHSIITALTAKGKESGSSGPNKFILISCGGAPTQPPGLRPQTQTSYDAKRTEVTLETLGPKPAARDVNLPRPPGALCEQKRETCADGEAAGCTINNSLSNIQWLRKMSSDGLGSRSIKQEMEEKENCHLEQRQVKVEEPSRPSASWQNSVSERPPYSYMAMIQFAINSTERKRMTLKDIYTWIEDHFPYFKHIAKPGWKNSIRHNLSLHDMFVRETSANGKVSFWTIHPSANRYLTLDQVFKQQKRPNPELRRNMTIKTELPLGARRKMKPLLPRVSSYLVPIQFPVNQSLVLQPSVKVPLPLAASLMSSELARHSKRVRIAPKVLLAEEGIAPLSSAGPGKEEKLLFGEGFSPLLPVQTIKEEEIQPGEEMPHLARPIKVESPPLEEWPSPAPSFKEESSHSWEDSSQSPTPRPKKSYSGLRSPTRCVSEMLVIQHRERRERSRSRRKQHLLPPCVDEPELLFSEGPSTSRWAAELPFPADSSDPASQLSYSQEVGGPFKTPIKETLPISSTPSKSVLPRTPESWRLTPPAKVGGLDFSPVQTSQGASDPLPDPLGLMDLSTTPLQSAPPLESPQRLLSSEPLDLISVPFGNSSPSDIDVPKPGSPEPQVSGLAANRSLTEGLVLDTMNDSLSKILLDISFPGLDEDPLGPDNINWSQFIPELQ
In words: FoxM1-responsive firefly luciferase reporter assay in C3-Luc cells. In kind it is cell-based. The conditions noted are these: C3-Luc cells, 1 μg/mL doxycycline (60-fold induction), 5 μM compound, 24 hrs. The protocol: FIG. 6. Thiostrepton and Siomycin A both inhibit FoxM1 transcriptional activity. […] The next day, the luciferase activity was measured with the Dual-Luciferase reporter assay system (E1910; Promega) according to the manufacturer's instructions.
The development of U2OS clone C3 cell line with doxycyclin inducible FoxM1-GFP fusion protein has been described before (17). This cell line was transfected with a plasmid expressing firefly luciferase under the control of 6× FoxM1 responsive (FoxRE) promoter (17), along with pcDNA3.1 (Invitrogen, Carlsbad, Calif.) plasmid that expresses neomycin phospho-transferase. […] This clone was further transfected with pRL-CMV (Promega) that expresses renilla luciferase along with pLPCX-puro (Clontech), and the cells were selected in 2 μg/ml puromycin. This cell line which expresses FoxM1-dependent firefly luciferase and constitutive renilla luciferase was named as C3-Luc and used for the screening of compound libraries (Challenge set and Diversity set) from the National Cancer Institute.
For high-throughput screening, the C3-Luc cells were grown in 96-well plates and treated overnight with a combination of 1 μg/ml doxycycline and 10 μM of compounds from the library. Next day, the firefly and renilla luciferase activities were measured with the Dual Glo system (E2940; Promega).
For the other luciferase assay experiments, the cells were treated as indicated in the FIG. 1 legend and the luciferase activity was measured using the Dual Luciferase reporter assay system (E1910; Promega) according to the manufacturer's instructions.

Regarding `C=C(NC(=O)C(=C)NC(=O)c1csc(C2=N[C@@H]3c4csc(n4)[C@H]4NC(=O)c5csc(n5)[C@H]([C@](C)(O)[C@@H](C)O)NC(=O)[C@H]5CSC(=N5)/C(=C/C)NC(=O)[C@H]([C@@H](C)O)NC(=O)c5csc(n5)[C@]3(CC2)NC(=O)[C@H](C)NC(=O)C(=C)NC(=O)[C@H](C)NC(=O)[C@H]([C@@H](C)CC)N[C@@H]2C=Cc3c([C@H](C)O)cc(nc3[C@H]2O)C(=O)O[C@@H]4C)n1)C(N)=O` [thiostrepton], the “apoptosis (cleaved caspase-3)” value in experiment [1] (NB7 and NB7 with reconstituted caspase-8) is listed as “induce apoptosis in these neuroblastoma cells independently from caspase-8”; in experiment [2], “induce apoptosis”; in experiment [3] it was “induce apoptosis”; in experiment [4], “more efficient inducer of apoptosis than Siomycin A; also recorded: induce apoptosis”. Besides, the FoxM1 protein expression result is “inhibit FoxM1 protein expression” in experiment [1] (immunoblot) and “repress FoxM1 protein expression” in experiment [3]. Besides, the FoxM1 expression result in experiment [2] was “inhibit FoxM1 expression”; in experiment [4], “stronger inhibitor of FoxM1; also recorded: inhibit FoxM1 expression”. Besides, the “relative firefly luciferase activity (FoxM1 transcriptional activity)” value at FoxM1 is recorded as “efficiently reduced the value to basal levels”.
